For orientation: EC50 means the midpoint of the concentration-response curve.

Structures are written as SMILES.

This passage reports EC50 results from publication PMC4708007 (Bioscience Reports, 2015).

This assay concerns the target T1, FtRelA (Francisella tularensis, UniProt Q5NEV0).
T1 construct: gene relA
The assay can be described thus: biochemical.

T1 sequence (Q5NEV0 1-647 limits assumed): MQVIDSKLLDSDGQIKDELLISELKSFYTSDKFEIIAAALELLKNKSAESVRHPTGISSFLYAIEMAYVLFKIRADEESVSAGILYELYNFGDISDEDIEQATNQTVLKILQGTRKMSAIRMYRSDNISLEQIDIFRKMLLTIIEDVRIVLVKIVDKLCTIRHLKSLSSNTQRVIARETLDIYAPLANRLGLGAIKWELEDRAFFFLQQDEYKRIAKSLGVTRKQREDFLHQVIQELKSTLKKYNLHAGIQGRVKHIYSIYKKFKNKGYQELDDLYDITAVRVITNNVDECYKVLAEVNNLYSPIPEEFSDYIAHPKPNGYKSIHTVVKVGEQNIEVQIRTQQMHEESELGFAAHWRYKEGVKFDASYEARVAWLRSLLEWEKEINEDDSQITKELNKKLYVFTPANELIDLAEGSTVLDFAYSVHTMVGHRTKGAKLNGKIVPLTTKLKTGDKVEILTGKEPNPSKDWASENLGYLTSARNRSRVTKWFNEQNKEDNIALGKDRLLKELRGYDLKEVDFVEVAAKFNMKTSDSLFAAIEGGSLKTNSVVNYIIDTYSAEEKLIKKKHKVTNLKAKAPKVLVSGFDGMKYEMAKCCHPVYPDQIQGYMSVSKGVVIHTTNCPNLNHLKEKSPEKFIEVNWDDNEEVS

In turn, `Nc1nc2c(ncn2[C@@H]2O[C@H](COP(=O)(O)OP(=O)(O)O)[C@@H](OP(=O)(O)OP(=O)(O)O)[C@H]2O)c(=O)[nH]1` [ppGpp] had an EC50 of 60 ± 1.9 µM.
